Where a name gives a salt, the structure may show the parent alone.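 A five-concentration, 48-hour dose response in 96-well plates underlies each endpoint, interpolated linearly between surrounding concentrations. GI50 marks 50% less growth.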 Active and inactive are the calls of the source. Rule as the data show it: active = GI50 up to about 1.1 µM and inactive = higher.
Experiments:
Experiment in all cases: DTP human tumour cell line panel, 48 h
UACC-62 = test system: UACC-62
MDA-MB-231 = test system: MDA-MB-231
MDA-MB-435 = test system: MDA-MB-435
KM12 = test system: KM12
COLO 205 = test system: COLO 205
K562 = test system: K562
SF-539 = test system: SF-539
NCI-H522 = test system: NCI-H522
RPMI-8226 = test system: RPMI-8226
UACC-257 = test system: UACC-257
MDA-N = test system: MDA-N
SW-620 = test system: SW-620
OVCAR-4 = test system: OVCAR-4
SK-MEL-28 = test system: SK-MEL-28
SR = test system: SR
CAKI-1 = test system: CAKI-1
OVCAR-3 = test system: OVCAR-3
T47D = test system: T47D
M14 = test system: M14
SK-OV-3 = test system: SK-OV-3

Row | SMILES | GI50 (UACC-62) | GI50 (MDA-MB-231) | GI50 (MDA-MB-435) | GI50 (KM12) | GI50 (COLO 205) | GI50 (K562) | GI50 (SF-539) | GI50 (NCI-H522) | GI50 (RPMI-8226) | GI50 (UACC-257) | GI50 (MDA-N) | GI50 (SW-620) | GI50 (OVCAR-4) | GI50 (SK-MEL-28) | GI50 (SR) | GI50 (CAKI-1) | GI50 (OVCAR-3) | GI50 (T47D) | GI50 (M14) | GI50 (SK-OV-3)
1 | Clc1ccc(-c2noc(CN3CCCCC3)n2)cc1 | > 100 µM (inactive) | > 100 µM (inactive) | > 100 µM (inactive) | > 100 µM (inactive) | 90.2 µM (inactive) | 55.8 µM (inactive) | > 100 µM (inactive) | 81.1 µM (inactive) | 43.9 µM (inactive) | 71 µM (inactive) | > 100 µM (inactive) | > 100 µM (inactive) | > 100 µM (inactive) | > 100 µM (inactive) | 63.1 µM (inactive) | > 100 µM (inactive) | 67.9 µM (inactive) | 47.8 µM (inactive) | > 100 µM (inactive) | > 100 µM (inactive)
2 | C=C1C(=O)OC2/C=C(\COC(C)=O)CCC(OC(C)=O)C3=CC(OC3=O)C12 (stereo not given) | 4.26 µM (inactive) | 19.1 µM (inactive) | 10.6 µM (inactive) | 12.7 µM (inactive) | 2.14 µM (inactive) | 2.3 µM (inactive) | 6.64 µM (inactive) | 0.526 µM (active) | 3.53 µM (inactive) | 3.57 µM (inactive) | > 10 µM (inactive) | 1.77 µM (inactive) | 23.3 µM (inactive) | 3.99 µM (inactive) | 2.3 µM (inactive) | 3.03 µM (inactive) | 4.15 µM (inactive) | 16.9 µM (inactive) | 2.91 µM (inactive) | 14.6 µM (inactive)
3 | CCOC(=O)C(NC(=O)CC)(Nc1ccc(S(=O)(=O)Nc2ccc(OC)nn2)cc1)C(F)(F)F (stereo not given) | > 100 µM (inactive) | > 100 µM (inactive) | > 100 µM (inactive) | > 100 µM (inactive) | > 100 µM (inactive) | > 100 µM (inactive) | > 100 µM (inactive) | > 100 µM (inactive) | > 100 µM (inactive) | > 100 µM (inactive) | > 100 µM (inactive) | > 100 µM (inactive) | > 100 µM (inactive) | > 100 µM (inactive) | > 100 µM (inactive) | > 100 µM (inactive) | > 100 µM (inactive) | > 100 µM (inactive) | > 100 µM (inactive) | > 100 µM (inactive)
4 | CC(C(=O)O)C(C)(O)C(=O)O (stereo not given) | > 100 µM (inactive) | > 100 µM (inactive) | > 100 µM (inactive) | > 100 µM (inactive) | > 100 µM (inactive) | > 100 µM (inactive) | > 100 µM (inactive) | > 100 µM (inactive) | > 100 µM (inactive) | > 100 µM (inactive) | > 100 µM (inactive) | > 100 µM (inactive) | > 100 µM (inactive) | > 100 µM (inactive) | > 100 µM (inactive) | > 100 µM (inactive) | > 100 µM (inactive) | > 100 µM (inactive) | > 100 µM (inactive) | > 100 µM (inactive)
5 | CC(C)=CCc1cc(C2COc3cc4c(c(O)c3C2=O)C=CC(C)(C)O4)c(O)cc1O (stereo not given) | 15.7 µM (inactive) | 14.2 µM (inactive) | 16 µM (inactive) | 14.9 µM (inactive) | 20.2 µM (inactive) | 3.08 µM (inactive) | 16.5 µM (inactive) | 11.6 µM (inactive) | 6.43 µM (inactive) | 12.8 µM (inactive) | 14.4 µM (inactive) | 22 µM (inactive) | 10.6 µM (inactive) | 22.4 µM (inactive) | 6.78 µM (inactive) | 17.2 µM (inactive) | 14.3 µM (inactive) | 4.99 µM (inactive) | 13.4 µM (inactive) | 15.7 µM (inactive)
6 | C=CCNC1=C2C[C@@H](C)C[C@@H](OC)[C@H](OC(=O)CCN(C)C)[C@H](C)/C=C(\C)[C@@H](OC(N)=O)[C@H](OC)/C=C\C=C(/C)C(=O)NC(=CC1=O)C2=O | 0.0545 µM (active) | 2.05 µM (inactive) | 0.053 µM (active) | 0.0342 µM (active) | < 0.0188 µM (active) | 0.156 µM (active) | 0.0562 µM (active) | 0.125 µM (active) | 1.15 µM (inactive) | 0.0914 µM (active) | 0.0386 µM (active) | 0.0578 µM (active) | 3.97 µM (inactive) | 0.171 µM (active) | 0.0204 µM (active) | 1.88 µM (inactive) | 0.205 µM (active) | 1.13 µM (inactive) | 0.0622 µM (active) | 0.0327 µM (active)
7 | Cc1ccc(S(=O)(=O)N2CCN(CCN(C)CCN3CCN(S(=O)(=O)c4ccc(C)cc4)CC3)CC2)cc1 | 17.9 µM (inactive) | 20.6 µM (inactive) | 17.7 µM (inactive) | 15.1 µM (inactive) | 18.2 µM (inactive) | 15 µM (inactive) | 16.4 µM (inactive) | 19.8 µM (inactive) | 16.6 µM (inactive) | 16.4 µM (inactive) | 18.9 µM (inactive) | 16.9 µM (inactive) | 19.5 µM (inactive) | 17.1 µM (inactive) | 18.5 µM (inactive) | 19.4 µM (inactive) | 16.7 µM (inactive) | 19.3 µM (inactive) | 17.2 µM (inactive) | 18.4 µM (inactive)
8 | O=c1[nH]c(=O)n(C2CC(O)C(CO)O2)c2nc3ccc4cc5ccccc5cc4c3nc12 (stereo not given) | > 100 µM (inactive) | > 100 µM (inactive) | > 100 µM (inactive) | 51.6 µM (inactive) | > 100 µM (inactive) | > 100 µM (inactive) | > 100 µM (inactive) | > 100 µM (inactive) | > 100 µM (inactive) | > 100 µM (inactive) | > 100 µM (inactive) | > 100 µM (inactive) | 80.7 µM (inactive) | > 100 µM (inactive) | 69.5 µM (inactive) | > 100 µM (inactive) | > 100 µM (inactive) | > 100 µM (inactive) | > 100 µM (inactive) | 53.6 µM (inactive)
9 | COc1c(OC(C)=O)c(OC(C)=O)cc2c1-c1ccc(SC)c(=O)cc1C(NC(C)=O)CC2 (stereo not given) | 0.397 µM (active) | 0.512 µM (active) | 0.179 µM (active) | 0.504 µM (active) | 1.65 µM (inactive) | 0.316 µM (active) | 0.254 µM (active) | 0.204 µM (active) | 0.416 µM (active) | 3.72 µM (inactive) | 0.163 µM (active) | 0.959 µM (active) | 26 µM (inactive) | 0.342 µM (active) | 0.448 µM (active) | 6.89 µM (inactive) | 0.142 µM (active) | > 100 µM (inactive) | 0.698 µM (active) | 2.91 µM (inactive)
10 | CN1CCN(CCCNN)CC1 | > 100 µM (inactive) | > 100 µM (inactive) | > 100 µM (inactive) | > 100 µM (inactive) | > 100 µM (inactive) | 1.87 µM (inactive) | > 100 µM (inactive) | > 100 µM (inactive) | 86.7 µM (inactive) | > 100 µM (inactive) | > 100 µM (inactive) | > 100 µM (inactive) | > 100 µM (inactive) | > 100 µM (inactive) | 0.0327 µM (active) | > 100 µM (inactive) | > 100 µM (inactive) | > 100 µM (inactive) | > 100 µM (inactive) | > 100 µM (inactive)
11 | O=C(Nc1sccc1S(=O)(=O)c1ccc(Cl)cc1)C(F)(F)F | 9.27 µM (inactive) | 13.7 µM (inactive) | 39.1 µM (inactive) | 13.4 µM (inactive) | 17.1 µM (inactive) | 11.5 µM (inactive) | 26.1 µM (inactive) | 8.63 µM (inactive) | 3.88 µM (inactive) | 32.7 µM (inactive) | 8.28 µM (inactive) | 53.2 µM (inactive) | 33.7 µM (inactive) | 74.3 µM (inactive) | 22.8 µM (inactive) | 24.9 µM (inactive) | 31 µM (inactive) | 6.43 µM (inactive) | 38.3 µM (inactive) | 30.3 µM (inactive)
12 | CC(=O)[C@H]1[C@@H](OCc2ccccc2)O[N+]([O-])=C(C)[C@@H]1c1ccccc1 | 49.2 µM (inactive) | 34.6 µM (inactive) | 45 µM (inactive) | 37.4 µM (inactive) | 42.7 µM (inactive) | 14.5 µM (inactive) | 18.6 µM (inactive) | 13.1 µM (inactive) | 14.7 µM (inactive) | 34.7 µM (inactive) | 41.7 µM (inactive) | 17.4 µM (inactive) | 47.1 µM (inactive) | 27.2 µM (inactive) | 19.2 µM (inactive) | 23.6 µM (inactive) | 24.7 µM (inactive) | 21.3 µM (inactive) | 36.1 µM (inactive) | > 100 µM (inactive)
13 | CC(C)C[C@H]1C(=O)N2CCC[C@H]2[C@]2(O)O[C@](NC(=O)[C@@H]3C=C4c5cccc6[nH]c(Br)c(c56)C[C@H]4N(C)C3)(C(C)C)C(=O)N12 [BROMOCRIPTINE MESYLATE] | > 100 µM (inactive) | > 100 µM (inactive) | 38.2 µM (inactive) | 9.82 µM (inactive) | 5.27 µM (inactive) | 4.65 µM (inactive) | > 100 µM (inactive) | 34 µM (inactive) | 3.8 µM (inactive) | 49.5 µM (inactive) | 69.8 µM (inactive) | 72.6 µM (inactive) | > 100 µM (inactive) | > 100 µM (inactive) | 6.11 µM (inactive) | 46.1 µM (inactive) | 8.87 µM (inactive) | 28.2 µM (inactive) | 61.1 µM (inactive) | > 100 µM (inactive)

Reference: ChEMBL document CHEMBL1201862, “PubChem BioAssay data set” (2004)
